From ChEMBL document CHEMBL1255319, “Predictive values of the human immunodeficiency virus phenotype and genotype and of amprenavir and lopinavir inhibitory quotients in heavily pretreated patients on a ritonavir-boosted dual-protease-inhibitor regimen” (Antimicrob Agents Chemother, 2008) come the findings set out here.

The term IC90 denotes the concentration at which the effect reaches the 90% level.

In brackets after ≈: the same amount, converted by molar mass.

Data set [1] can be described thus: Inhibitory quotient, ratio of fCmin to IC90 for HIV1 infected in patient at 600 mg, BID.
The species named for data set [2] is Homo sapiens. As to the kind of experiment: fCmin in HIV1-infected patient at 600 mg, BID measured on week 2 by HPLC. Conditions: in vivo.
Data set [3] relates to Human immunodeficiency virus 1. As to the kind of experiment: Antiviral activity against HIV1 infected in human in presence of human serum. The format is functional.
Data set [4] has as its system Human immunodeficiency virus. Put plainly: Antiviral activity in HIV infected in patient having Cmin-corrected GIQ value > 75 assessed as viral copies. The data set is classed as functional.
For data set [5], the system named is Human immunodeficiency virus. Put plainly: Antiviral activity in HIV infected in patient having Cmin-corrected GIQ value < 75 assessed as viral copies. The format is functional.
Data set [6] is described as follows: Inhibitory quotient, ratio of Cmin to IC90 for HIV1 infected in patient in presence of human serum at 600 mg, BID.
The test system of data set [7] is Human immunodeficiency virus 1. As to the kind of experiment: Antiviral activity against HIV1 infected in human. The data set is classed as functional.

For the molecule `CC(C)CN(C[C@@H](O)[C@H](Cc1ccccc1)NC(=O)O[C@H]1CCOC1)S(=O)(=O)c1ccc(N)cc1` [AMPRENAVIR], the Ratio in data set [1] came out at 2.5; in data set [6] it was 3.6. Besides, the fCmin in data set [2] was found to be 177 ng/mL. The IC90 in data set [3] was 0.453 µg/mL; in data set [7], 0.0578 µg/mL (≈ 0.114 µM). The log10cfu in data set [4] amounted to 1.23 log10 copies/ml; in data set [5], 0.19 log10 copies/ml.
